Data as given in ChEMBL document CHEMBL1156232, “Non-classical antifolates. Part 2: synthesis, biological evaluation, and molecular modeling study of some new 2,6-substituted-quinazolin-4-ones” (Bioorg Med Chem, 2010).
Active and inactive are the calls of the source. No cut-off for these calls is given here.

How the values were obtained:
[1] = test system: Staphylococcus aureus; test: Antibacterial activity against Staphylococcus aureus at 200 ug/disk after 24 hrs by disk diffusion method; assay type: functional
[2] = test system: Bacillus subtilis; test: Antibacterial activity against Bacillus subtilis at 200 ug/disk after 24 hrs by disk diffusion method; assay type: functional
[3] = test system: Micrococcus luteus; test: Antibacterial activity against Micrococcus luteus at 200 ug/disk after 24 hrs by disk diffusion method; assay type: functional
[4] = test system: Escherichia coli; test: Antibacterial activity against Escherichia coli at 200 ug/disk after 24 hrs by disk diffusion method; assay type: functional
[5] = test system: Pseudomonas aeruginosa; test: Antibacterial activity against Pseudomonas aeruginosa at 200 ug/disk after 24 hrs by disk diffusion method; assay type: functional
[6] = test system: Candida albicans; test: Antifungal activity against Candida albicans at 200 ug/disk after 48 hrs by disk diffusion method; assay type: functional, organism-based
[7] = test system: Candida albicans; test: Antifungal activity against Candida albicans after 48 hrs by microdilution susceptibility method; assay type: functional, organism-based
[8] = molecular target: T1, Dihydrofolate reductase (Bos taurus, UniProt P00376)
T1 sequence (P00376 whole entry): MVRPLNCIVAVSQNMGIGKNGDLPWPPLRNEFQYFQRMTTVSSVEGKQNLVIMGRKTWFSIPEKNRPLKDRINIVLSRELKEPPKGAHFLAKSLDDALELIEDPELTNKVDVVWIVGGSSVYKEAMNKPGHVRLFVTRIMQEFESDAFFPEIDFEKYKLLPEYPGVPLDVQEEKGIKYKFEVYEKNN
Description: Inhibition of bovine DHFR after 2 mins

SMILES	diameter of the inhibition zone (DIZ) [1]	diameter of the inhibition zone (DIZ) [2]	diameter of the inhibition zone (DIZ) [3]	diameter of the inhibition zone (DIZ) [4]	diameter of the inhibition zone (DIZ) [5]	Activity [6]	Activity [7]	IC50 [8] [µM]	zone of inhibition at 200 µg/disc ([2]; read-out: DIZ) [mm]	zone of inhibition at 200 µg/disc ([4]; read-out: DIZ) [mm]	zone of inhibition at 200 µg/disc ([5]; read-out: DIZ) [mm]
Cc1ccc2nc(SCc3ccccc3)n(Cc3ccccc3)c(=O)c2c1	inactive	inactive	inactive	inactive	inactive	inactive	inactive	10			
CSc1nc2ccc(C)cc2c(=O)n1Cc1ccccc1	inactive	inactive	inactive	inactive	inactive	inactive	inactive	20			
C=CCSc1nc2ccc(NC(=O)C=C)cc2c(=O)n1Cc1ccccc1	inactive	inactive	inactive	inactive	inactive	inactive	inactive	10			
CSc1nc2ccc(N)cc2c(=O)n1Cc1ccccc1	inactive	inactive	inactive	inactive	inactive	inactive	inactive	10			
CSc1nc2ccc([N+](=O)[O-])cc2c(=O)n1Cc1ccccc1	inactive	inactive	inactive	inactive	inactive	inactive	inactive	30			
CCSc1nc2ccc(C)cc2c(=O)n1Cc1ccccc1	inactive	inactive	inactive	inactive	inactive	inactive	inactive	35			
C=CCn1c(SSc2nc(=O)c3cc([N+](=O)[O-])ccc3n2CC=C)nc(=O)c2cc([N+](=O)[O-])ccc21	inactive	inactive	inactive	inactive	inactive	inactive	inactive	10			
O=c1c2cc([N+](=O)[O-])ccc2nc(SCc2ccccc2)n1Cc1ccccc1	inactive	inactive	inactive	inactive	inactive	inactive	inactive	30			
CCOC(=O)CCSc1nc2ccc([N+](=O)[O-])cc2c(=O)n1Cc1ccccc1	inactive		inactive			inactive	inactive	25	14	16	16
C=CC(=O)Nc1ccc2nc(SC)n(Cc3ccccc3)c(=O)c2c1	inactive	inactive	inactive	inactive	inactive	inactive	inactive	50			
